Measured values from patent publication US9999690B2, “Labeled compounds and methods of imaging, diagnosing cartilage disorders and diseases, and monitoring cartilage health using labeled and unlabeled compounds” (Perosphere Inc., priority 2013, dated 2018).
Where “and” joins values, the source holds several entries; their conditions need not be identical. Equal entries are not always repeated.

Assay: Rat mass balance recovery (urine, feces, cage rinses and wipes, carcasses, expired air), Groups 2 and 3
Assay type: in vivo
Set-up: Mass Balance Recovery, Feces Subtotal / Mass Balance Recovery, Expired Air, Trap 1 / Mass Balance Recovery, Expired Air, Trap 1 Subtotal: unit not given here
Details: for Mass Balance Recovery, Feces / Mass Balance Recovery, Cage Rinse / Mass Balance Recovery, Dose Site Wipe / Mass Balance Recovery, Urine / Mass Balance Recovery, Cage Wipe / Mass Balance Recovery, Carcass / Mass Balance Recovery, Feces Subtotal / Mass Balance Recovery, Cage Rinse Subtotal / Mass Balance Recovery, Urine Subtotal: rat Group 2, IV dose; for Mass Balance Recovery, Dose Site Wipe: 0 hrs; for Mass Balance Recovery, Cage Wipe / Mass Balance Recovery, Carcass: 96 hrs; for Mass Balance Recovery, Expired Air, Trap 1 / Mass Balance Recovery, Expired Air, Trap 1 Subtotal: rat Group 3, IV dose; for Mass Balance Recovery, TOTAL: rat Groups 2 and 3, IV dose
Procedure: A study was conducted to determine the pharmacokinetics, rates and routes of excretion with mass baseline and tissue distribution of radioactivity, after a single intravenous dose administration of formula XIII (also referred to as [^14C]DAP) was administered to the rats by tail vein intravenous injection at a
The study was conducted on 19 male rats divided into 4 groups. The first group of 6 rats was used for blood collection (Group 1); the second group of 4 rats was used for urine, feces, cage rinses and wipes and carcasses collection (Group 2); the third group of 4 rats was used for expired air collection (Group 3); the fourth group of 5 rats was used for terminal blood/serum and tissue distribution by Quantitative Whole-Body Autoradiography (QWBA) (Group 4).

[1] = 24-48 hrs, Mean, in % (unit assumed)
[2] = 24-48 hrs, individual rats 201M-204M, in % (unit assumed)
[3] = 48-72 hrs, Mean, in % (unit assumed)
[4] = 48-72 hrs, individual rats 201M-204M, in % (unit assumed)
[5] = 72-96 hrs, Mean, in % (unit assumed)
[6] = 72-96 hrs, individual rats 201M-204M, in % (unit assumed)
[7] = individual rats 201M-204M, in % (unit assumed)

For `[2H]C1([2H])N(CCCNC(=O)[C@@H](N)CCCNC(=N)N)C([2H])([2H])C([2H])([2H])N(CCCNC(=O)[C@@H](N)CCCNC(=N)N)C1([2H])[2H]` [formula XIII], the “Mass Balance Recovery, Feces” value (0-8 hrs, Mean, in % (unit assumed)) was 0.02, the “Mass Balance Recovery, Feces” value (0-8 hrs, individual rats 201M-204M) was 0.00 and 0.04 (2×) and 0.01 and the “Mass Balance Recovery, Cage Rinse” value (0-24 hrs, Mean, in % (unit assumed)) was 1.74. The “Mass Balance Recovery, Cage Rinse” value (0-24 hrs, individual rats 201M-204M, in % (unit assumed)) was 2.48 and 0.91 and 1.94 and 1.63, the Mass Balance Recovery, Dose Site Wipe (Mean) was 0.01% and the Mass Balance Recovery, Dose Site Wipe (individual rats 201M-204M) was 0.01% (3×) and 0%. For the same compound, the “Mass Balance Recovery, Feces” value (8-24 hrs, Mean, in % (unit assumed)) was 1.82, the “Mass Balance Recovery, Feces” value (8-24 hrs, individual rats 201M-204M, in % (unit assumed)) was 1.34 and 2.04 and 2.40 and 1.49 and the “Mass Balance Recovery, Cage Rinse” value [1] was 0.32. The “Mass Balance Recovery, Feces” value [1] was 0.93, the “Mass Balance Recovery, Urine” value [1] was 3.71 and the “Mass Balance Recovery, Feces” value (24-48 hrs, individual rats 201M-204M) was 1.18 and 0.70 (2×) and 1.15. For the same compound, the “Mass Balance Recovery, Cage Rinse” value [2] was 0.37 and 0.21 and 0.38 and 0.30, the “Mass Balance Recovery, Urine” value [2] was 3.83 and 3.59 and 4.50 and 2.92 and the “Mass Balance Recovery, Cage Rinse” value [3] was 0.18. The “Mass Balance Recovery, Feces” value [3] was 0.42, the “Mass Balance Recovery, Urine” value [3] was 1.58 and the Mass Balance Recovery, Urine (48-72 hrs, individual rats 201M-204M) was 1.61% (2×) and 1.73% and 1.36%. For the same compound, the “Mass Balance Recovery, Cage Rinse” value [4] was 0.13 and 0.11 and 0.20 and 0.28, the “Mass Balance Recovery, Feces” value [4] was 0.46 and 0.41 and 0.54 and 0.26 and the “Mass Balance Recovery, Cage Rinse” value [5] was 0.16. The “Mass Balance Recovery, Feces” value [5] was 0.25, the “Mass Balance Recovery, Urine” value [5] was 0.94 and the “Mass Balance Recovery, Cage Rinse” value [6] was 0.12 and 0.11 and 0.24 and 0.15. The “Mass Balance Recovery, Feces” value [6] was 0.31 and 0.26 and 0.27 and 0.15, the “Mass Balance Recovery, Urine” value [6] was 0.97 and 1.03 and 0.96 and 0.79 and the “Mass Balance Recovery, Cage Wipe” value (Mean, in % (unit assumed)) was 0.10. For the same compound, the “Mass Balance Recovery, Carcass” value (Mean, in % (unit assumed)) was 2.71, the “Mass Balance Recovery, Cage Wipe” value [7] was 0.08 and 0.06 and 0.20 and 0.04 and the “Mass Balance Recovery, Carcass” value [7] was 2.74 and 2.80 and 2.60 and 2.68. The “Mass Balance Recovery, Feces Subtotal” value (Mean) was 3.44, the “Mass Balance Recovery, Cage Rinse Subtotal” value (Mean, in % (unit assumed)) was 2.39 and the “Mass Balance Recovery, Urine Subtotal” value (Mean, in % (unit assumed)) was 89.51. The “Mass Balance Recovery, Feces Subtotal” value (individual rats 201M-204M) was 3.29 and 3.45 and 4.37 and 2.64, the “Mass Balance Recovery, Cage Rinse Subtotal” value [7] was 3.10 and 1.34 and 2.76 and 2.36 and the “Mass Balance Recovery, Urine Subtotal” value [7] was 89.44 and 90.60 and 87.85 and 90.14. For the same compound, the “Mass Balance Recovery, Expired Air, Trap 1” value (0-24 hrs, Mean) was 0.03, the “Mass Balance Recovery, Expired Air, Trap 1” value (0-24 hrs, individual rats 301M-304M) was 0.03 (3×) and 0.02 and the “Mass Balance Recovery, Expired Air, Trap 1” value (24-48 hrs, Mean) was 0.00. The “Mass Balance Recovery, Expired Air, Trap 1” value (24-48 hrs, individual rats 301M-304M) was 0.00, the “Mass Balance Recovery, Expired Air, Trap 1” value (48-72 hrs, Mean) was 0.01 and the “Mass Balance Recovery, Expired Air, Trap 1” value (48-72 hrs, individual rats 301M-304M) was 0.00 (3×) and 0.05. For the same compound, the “Mass Balance Recovery, Expired Air, Trap 1 Subtotal” value (Mean) was 0.04, the “Mass Balance Recovery, Expired Air, Trap 1 Subtotal” value (individual rats 301M-304M) was 0.03 (2×) and 0.02 and 0.08 and the “Mass Balance Recovery, TOTAL” value ((201M/301M to 204M/304M), in % (unit assumed)) was 98.72 and 98.32 and 97.83 and 97.98. For the same compound, the “Mass Balance Recovery, TOTAL” value (Mean, in % (unit assumed)) was 98.21, the “time after administration by which the vast majority is excreted (urinary excretion kinetics)” value (rat, single IV dose, FIG. 6) was under 24 h and the total recovery (rat, single intravenous administration, Groups 2 and 3, FIG. 8) was 98.21±0.4%.
